In patent publication US20170118987A1, “SYNERGISTIC HERBICIDAL COMPOSITION AND USE THEREOF” (ROTAM AGROCHEM INTERNATIONAL CO., LTD, priority 2015, published 2017):

Assays:
[1] = compared with the amorphous state; from U.S. Ser. No. 14/926,133; cited from earlier work
[2] = Stability of iodosulfuron-methyl-sodium solid forms; assay type: physicochemical; settings: hydrolysis when dissolved or dispersed in water and during storage exposed to moisture

In the case of COC(=O)c1ccc(I)cc1S(=O)(=O)NC(=O)Nc1nc(C)nc(OC)n1.[Na] [sodium salt of methyl 4-iodo-2-[[[[(4-methoxy-6-methyl-1,3,5-triazin-2-yl)amino]carbonyl]amino]sulfonyl]benzoate], the stability in formulations [1] is given as “improved stability” and the stability [2] is given as “highly unstable”.
